# Measurements: article PMC8835733, “PaOctβ2R: Identification and Functional Characterization of an Octopamine Receptor Activating Adenylyl Cyclase Activity in the American Cockroach Periplaneta americana” (International Journal of Molecular Sciences, 2022)
# “And” between values parts separate entries of the source, which are not always exact repeats. Identical values can stand only once. Like-named read-outs stand apart in the source and are kept apart here.
# How the values were obtained:
# PaOctβ2R-HA [1] = test: Antagonist inhibition of octopamine-activated PaOctβ2R-HA (cAMP via CNG channel / Fluo-4); assay type: cell-based, Periplaneta americana; conditions: 1 × 10^−9 M octopamine; for Maximal Inhibition of octopamine-activated PaOctβ2R-HA activity: 1 × 10^−4 M IBMX
# Protocol: (§1) The reduction of cellular cAMP production, monitored as a decrease in Fluo-4 fluorescence (see Section 4.9), was quantified and normalized to the value obtained without adding antagonists (=100%). Normalized data were used to construct inhibitor concentration-response curves.
# (§2) Ligand concentrations that led to half-maximal inhibition of PaOctβ2R-HA (IC50) were determined from the concentration-response curves.
# (§3) A stably transfected cell line was established to examine PaOctβ2R-HA receptor activity by Ca^2+ imaging. Control measurements were performed in the parental (flpTM) cell line. Changes in [cAMP]i were registered indirectly via co-expressed CNG channels that are opened by cAMP and cause an influx of extracellular Ca^2+ [18, 26, 91]. Changes in [Ca^2+]i were monitored with the Ca^2+-sensitive fluorescent dye Fluo-4. Cells were grown in 96-well dishes to a density of approximately 2 × 10^4 cells per well and were loaded at room temperature with Fluo-4 AM as described previously. After 90 min, the loading solution was substituted for dye-free extracellular solution (ECS; 120 mM NaCl, 5 mM KCl, 2 mM MgCl2, 2 mM CaCl2, 10 mM HEPES, and 10 mM glucose, pH 7.4 (NaOH)) containing 100 µM 3-isobutyl-1-methylxanthine (IBMX; Sigma-Aldrich/Merck, Darmstadt, Germany) as an inhibitor of cell-endogenous phosphodiesterases. The plate was transferred into a fluorescence reader (FLUOstar Omega, BMG Labtech, Ortenberg, Germany) to monitor Fluo-4 fluorescence. The excitation wavelength was 485 nm. Fluorescence emission was detected at 520 nm. Concentration series of various biogenic amines and synthetic receptor ligands were added once Fluo-4 fluorescence had reached a stable value in each well. The changes in Fluo-4 fluorescence were recorded automatically. Concentration-response curves were established from at least three independent experiments. Data points were derived from four-fold or eightfold determination.
# PaOctβ2R-HA [2] = test: Antagonist inhibition of tyramine-activated PaOctβ2R-HA (cAMP via CNG channel / Fluo-4); assay type: cell-based, Periplaneta americana; conditions: 1 × 10^−7 M tyramine; for Maximal Inhibition of tyramine-activated PaOctβ2R-HA activity: 1 × 10^−4 M IBMX
# Protocol: as §1, §2, §3
# PaOctβ2R-HA [3] = test: Agonist-evoked cAMP production in PaOctβ2R-HA-expressing flpTM cells (CNG channel / Fluo-4 Ca2+ imaging); assay type: cell-based, Periplaneta americana; conditions: for increase in [cAMP]i in PaOctβ2R-HA-expressing cells: biogenic amines at 0.1 and 1 µM; for increase in [cAMP]i in PaOctβ2R-HA-expressing cells / concentration at which the concentration-response curve saturated: 100 µM IBMX; for concentration at which the concentration-response curve saturated: flpTM + PaOctβ2R-HA cells
# Source text: (§4) These insect receptors are preferentially activated by octopamine and to a certain extent by tyramine as well. In a first series of experiments, we thus examined the ability of different biogenic amines, i.e., octopamine, tyramine, dopamine, histamine, and serotonin, to evoke PaOctβ2R-HA-dependent cAMP production in receptor-expressing as well as in the parental (flpTM) cell line. Increasing [cAMP]i cause opening of the CNG channels and influx of extracellular Ca^2+ which was detected by the Ca^2+-sensitive dye FLUO-4.
# (§5) In a next step, concentration series of octopamine and tyramine ranging from 10^−12 M to 10^−7 M for octopamine and 10^−11 M to 10^−6 M for tyramine were applied to the cell lines. The fluorescence signals were normalized to values obtained in flpTM + PaOctβ2R-HA cells with the highest ligand concentration (=100%) and used to calculate concentration response curves for the receptor (Figure 6; Table 1).
# (§6) Cells were transfected with 10 µg of the pcPaOctβ2R-HA construct by a modified calcium phosphate method following a previously established protocol. Transfected cells were selected in the presence of the antibiotics G418 (1 mg/mL) and hygromycin (100 µg/mL).
# as §3
# (UniProt Z9G3U5DLY1) [4] = test: Antagonist inhibition of octopamine-activated PaOctβ2R-HA (cAMP via CNG channel / Fluo-4); assay type: cell-based, Periplaneta americana; conditions: 1 × 10^−9 M octopamine, 1 × 10^−4 M IBMX
# Protocol: as §1, §2, §3
# (UniProt Z9G3U5DLY1) [5] = test: Antagonist inhibition of tyramine-activated PaOctβ2R-HA (cAMP via CNG channel / Fluo-4); assay type: cell-based, Periplaneta americana; conditions: 1 × 10^−7 M tyramine, 1 × 10^−4 M IBMX
# Protocol: as §1, §2, §3
# (UniProt Z9G3U5DLY1) [6] = test: Agonist-evoked cAMP production in PaOctβ2R-HA-expressing flpTM cells (CNG channel / Fluo-4 Ca2+ imaging); assay type: cell-based, Periplaneta americana; conditions: 100 µM IBMX
# Source text: as §4, §5, §6, §3
# flpTM cells = test: Control measurements in parental (non-transfected) flpTM cells (cAMP via CNG channel / Fluo-4); assay type: cell-based, human; conditions: concentration series of octopamine or tyramine; 100 µM IBMX
# Source text: as §4, with “FLUO-4. No stimulation of adenylyl cyclase activity was recorded in flpTM cells when incubated with 0.1 or 1 µM concentrations of biogenic amines (Figure 5A). […]” for “FLUO-4.”
# A stably transfected cell line was established to examine PaOctβ2R-HA receptor activity by Ca^2+ imaging. […] Changes in [Ca^2+]i were monitored with the Ca^2+-sensitive fluorescent dye Fluo-4. […] The plate was transferred into a fluorescence reader (FLUOstar Omega, BMG Labtech, Ortenberg, Germany) to monitor Fluo-4 fluorescence. […] Fluorescence emission was detected at 520 nm. Concentration series of various biogenic amines and synthetic receptor ligands were added once Fluo-4 fluorescence had reached a stable value in each well. The changes in Fluo-4 fluorescence were recorded automatically. […]
# [7] = read-out: IC50, half-maximal inhibition of octopamine-activated PaOctβ2R-HA
# [8] = read-out: pIC50 ± SD, octopamine-activated PaOctβ2R-HA (converted)
# [9] = read-out: IC50, half-maximal inhibition of tyramine-activated PaOctβ2R-HA
# [10] = read-out: pIC50 ± SD, tyramine-activated PaOctβ2R-HA (converted)
# [11] = mean of n = 5 experiments, flpTM + PaOctβ2R-HA cells, read-out: EC50, mean value for half-maximal stimulation of PaOctβ2R-HA
# [12] = mean of n = 5 experiments, flpTM + PaOctβ2R-HA cells, read-out: pEC50 ± SD, half-maximal stimulation of PaOctβ2R-HA (converted)
# [13] = single representative eight-fold determination, read-out: EC50, half maximal activation of PaOctβ2R-HA (representative experiment, Figure 6)
compound,measurement,setting,value
"COc1ccc2[nH]cc(CCN)c2c1 [5-MT, 5-methoxytryptamine]",effect on octopamine-stimulated PaOctβ2R-HA activity (in words),PaOctβ2R-HA [1],did not impair
same,effect on tyramine-stimulated PaOctβ2R-HA activity (in words),PaOctβ2R-HA [2],did not impair
"CCCN(CCC)C1CCc2cccc(O)c2C1 (centres unmarked) [8-OH-DPAT, 8-hydroxy-2-(dipropylamino)tetralin]",effect on octopamine-stimulated PaOctβ2R-HA activity (in words),PaOctβ2R-HA [1],did not impair
same,effect on tyramine-stimulated PaOctβ2R-HA activity (in words),PaOctβ2R-HA [2],did not impair
NCCc1ccc(O)c(O)c1 [dopamine],increase in [cAMP]i in PaOctβ2R-HA-expressing cells,PaOctβ2R-HA [3],"Neither dopamine, histamine nor serotonin caused an increase in [cAMP]i"
NC1=NCC2c3ccccc3Cc3ccccc3N12 (centres unmarked) [epinastine],IC50,(UniProt Z9G3U5DLY1) [4]; [7],~12 nM and 12 nM
same,IC50,(UniProt Z9G3U5DLY1) [4]; [8],11.4 nM
same,Maximal Inhibition of octopamine-activated PaOctβ2R-HA activity,PaOctβ2R-HA [1],100%
same,IC50,(UniProt Z9G3U5DLY1) [5]; [9],~13 nM and 13 nM
same,IC50,(UniProt Z9G3U5DLY1) [5]; [10],11.2 nM
same,Maximal Inhibition of tyramine-activated PaOctβ2R-HA activity,PaOctβ2R-HA [2],100%
NCCc1c[nH]cn1 [histamine],increase in [cAMP]i in PaOctβ2R-HA-expressing cells,PaOctβ2R-HA [3],"Neither dopamine, histamine nor serotonin caused an increase in [cAMP]i"
O=C(c1ccc(F)cc1)C1CCN(CCn2c(=O)[nH]c3ccccc3c2=O)CC1 [ketanserin],IC50,(UniProt Z9G3U5DLY1) [4]; [7],5120 nM
same,IC50,(UniProt Z9G3U5DLY1) [4]; [8],5120 nM
same,Maximal Inhibition of octopamine-activated PaOctβ2R-HA activity,PaOctβ2R-HA [1],80%
same,Maximal Inhibition of octopamine-activated PaOctβ2R-HA activity,PaOctβ2R-HA [1]; listed as Ketanserin,approximately 80%
same,IC50,(UniProt Z9G3U5DLY1) [5]; [9],1680 nM
same,IC50,(UniProt Z9G3U5DLY1) [5]; [10],1710 nM
same,Maximal Inhibition of tyramine-activated PaOctβ2R-HA activity,PaOctβ2R-HA [2],50%
NCC(O)c1ccc(O)cc1 (centres unmarked) [octopamine],EC50,(UniProt Z9G3U5DLY1) [6]; [11],0.467 nM
same,EC50,(UniProt Z9G3U5DLY1) [6]; [12],0.447 nM
same,EC50,(UniProt Z9G3U5DLY1) [6]; [13],0.297 nM
same,increase in [cAMP]i in PaOctβ2R-HA-expressing cells,PaOctβ2R-HA [3],showed increasing [cAMP]i
same,concentration at which the concentration-response curve saturated,PaOctβ2R-HA [3],≥ 10^−9 M
same,preference (selectivity) of PaOctβ2R-HA for octopamine over tyramine,PaOctβ2R-HA [3]; octopamine vs tyramine potency,100 fold and ~ 100 fold
same,change in the fluorescence signal in non-transfected flpTM cells,flpTM cells,no change in the fluorescence signal was observed
Cc1ccc(N(CC2=NCCN2)c2cccc(O)c2)cc1 [phentolamine],IC50,(UniProt Z9G3U5DLY1) [4]; [7],257 nM
same,IC50,(UniProt Z9G3U5DLY1) [4]; [8],247 nM
same,Maximal Inhibition of octopamine-activated PaOctβ2R-HA activity,PaOctβ2R-HA [1],100%
same,IC50,(UniProt Z9G3U5DLY1) [5]; [9],256 nM
same,IC50,(UniProt Z9G3U5DLY1) [5]; [10],255 nM
same,Maximal Inhibition of tyramine-activated PaOctβ2R-HA activity,PaOctβ2R-HA [2],100%
"NCCc1c[nH]c2ccc(O)cc12 [serotonin, 5-hydroxytryptamine]",increase in [cAMP]i in PaOctβ2R-HA-expressing cells,PaOctβ2R-HA [3],"Neither dopamine, histamine nor serotonin caused an increase in [cAMP]i"
NCCc1ccc(O)cc1 [tyramine],EC50,(UniProt Z9G3U5DLY1) [6]; [11],43 nM
same,EC50,(UniProt Z9G3U5DLY1) [6]; [12],40.7 nM
same,EC50,(UniProt Z9G3U5DLY1) [6]; [13],36.8 nM
same,increase in [cAMP]i in PaOctβ2R-HA-expressing cells,PaOctβ2R-HA [3],showed increasing [cAMP]i
same,concentration at which the concentration-response curve saturated,PaOctβ2R-HA [3],≥ 10^−7 M
same,change in the fluorescence signal in non-transfected flpTM cells,flpTM cells,no change in the fluorescence signal was observed
COC(=O)[C@@H]1[C@H]2C[C@H]3c4[nH]c5ccccc5c4CCN3C[C@@H]2CC[C@@H]1O [yohimbine],effect on octopamine-stimulated PaOctβ2R-HA activity (in words),PaOctβ2R-HA [1],did not impair
same,effect on tyramine-stimulated PaOctβ2R-HA activity (in words),PaOctβ2R-HA [2],did not impair
